Source: ChEMBL document CHEMBL1201862, “PubChem BioAssay data set” (2004)
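All cell lines were grown in 96-well plates and treated with compound for 48 hours. Abbreviation: GI50, concentration required for 50% inhibition of growth.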 The source made the active and inactive calls. Cut-off read from the data, not from the text of the source: active = GI50 up to about 1.1 µM and inactive = higher.

Experiments:
Test in all cases: NCI tumour cell line growth inhibition, 48 h
NCI-H460 = tested on: NCI-H460
HT-29 = tested on: HT-29
UACC-62 = tested on: UACC-62
Hs-578T = tested on: Hs-578T
MCF7 = tested on: MCF7
SNB-19 = tested on: SNB-19
RPMI-8226 = tested on: RPMI-8226
OVCAR-8 = tested on: OVCAR-8
K562 = tested on: K562
BT-549 = tested on: BT-549
SK-MEL-5 = tested on: SK-MEL-5
HCT-116 = tested on: HCT-116
SK-MEL-2 = tested on: SK-MEL-2
TK-10 = tested on: TK-10
OVCAR-4 = tested on: OVCAR-4
LOX IMVI = tested on: LOX IMVI
SR = tested on: SR
MDA-MB-231 = tested on: MDA-MB-231
SN12C = tested on: SN12C

Structure (SMILES)	GI50 (NCI-H460)	GI50 (HT-29)	GI50 (UACC-62)	GI50 (Hs-578T)	GI50 (MCF7)	GI50 (SNB-19)	GI50 (RPMI-8226)	GI50 (OVCAR-8)	GI50 (K562)	GI50 (BT-549)	GI50 (SK-MEL-5)	GI50 (HCT-116)	GI50 (SK-MEL-2)	GI50 (TK-10)	GI50 (OVCAR-4)	GI50 (LOX IMVI)	GI50 (SR)	GI50 (MDA-MB-231)	GI50 (SN12C)
CCOC(=O)c1sc(N)nc1N1CCCC1	> 100 µM (inactive)	> 100 µM (inactive)	> 100 µM (inactive)	> 100 µM (inactive)	> 100 µM (inactive)	> 100 µM (inactive)	> 100 µM (inactive)	> 100 µM (inactive)	> 100 µM (inactive)	> 100 µM (inactive)	> 100 µM (inactive)	> 100 µM (inactive)	> 100 µM (inactive)	> 100 µM (inactive)	> 100 µM (inactive)	> 100 µM (inactive)	> 100 µM (inactive)	> 100 µM (inactive)	> 100 µM (inactive)
O=c1oc2ccccc2cc1-c1csc(Nc2cc(Cl)cc(Cl)c2)n1	6.64 µM (inactive)	2.85 µM (inactive)	52.5 µM (inactive)	12.2 µM (inactive)	17.4 µM (inactive)	> 24.2 µM (inactive)	> 100 µM (inactive)	4.11 µM (inactive)	> 100 µM (inactive)	> 54.8 µM (inactive)	> 56.1 µM (inactive)	3.6 µM (inactive)	> 100 µM (inactive)	20.6 µM (inactive)	1.79 µM (inactive)	2.82 µM (inactive)	> 20 µM (inactive)	4.66 µM (inactive)	6.31 µM (inactive)
COc1ccc(/C=N/c2c(O)ccc3ccccc23)cc1OC	80.9 µM (inactive)	98.9 µM (inactive)	72.6 µM (inactive)	4.36 µM (inactive)	> 100 µM (inactive)	> 100 µM (inactive)	19.2 µM (inactive)	> 100 µM (inactive)	47.1 µM (inactive)	89.3 µM (inactive)	56.2 µM (inactive)	97.9 µM (inactive)	> 100 µM (inactive)	> 100 µM (inactive)	> 100 µM (inactive)	46.8 µM (inactive)	> 100 µM (inactive)	63.7 µM (inactive)	> 100 µM (inactive)
Cc1cc(-c2nc3cccc(F)c3s2)ccc1N	> 20.4 µM (inactive)	> 57.3 µM (inactive)	> 96.4 µM (inactive)	> 54.2 µM (inactive)	0.0132 µM (active)	> 80.2 µM (inactive)	> 52.6 µM (inactive)	> 80.9 µM (inactive)	> 56.6 µM (inactive)	46.2 µM (inactive)	> 100 µM (inactive)	> 52.7 µM (inactive)	> 85.3 µM (inactive)	0.48 µM (active)	> 27.2 µM (inactive)	> 63.2 µM (inactive)	2.52 µM (inactive)	98.9 µM (inactive)	> 45.8 µM (inactive)
COc1ccc(/C=C(/C)[N+](=O)[O-])cc1	2.18 µM (inactive)	3.1 µM (inactive)	1.68 µM (inactive)	9.02 µM (inactive)	1.22 µM (inactive)	5.86 µM (inactive)	0.394 µM (active)	2.22 µM (inactive)	2.62 µM (inactive)	2.75 µM (inactive)	2.48 µM (inactive)	1.75 µM (inactive)	4.95 µM (inactive)	1.82 µM (inactive)	3.09 µM (inactive)	1.48 µM (inactive)	0.419 µM (active)	3.24 µM (inactive)	2.1 µM (inactive)
CSC(SC)=C(C#N)C(=O)Nc1ccc(Cl)cc1	> 100 µM (inactive)	35.6 µM (inactive)	46 µM (inactive)	> 100 µM (inactive)	41.8 µM (inactive)	68.1 µM (inactive)	26.4 µM (inactive)	52.8 µM (inactive)	25.9 µM (inactive)	46.7 µM (inactive)	51.6 µM (inactive)	29.1 µM (inactive)	> 100 µM (inactive)	23.8 µM (inactive)	29.9 µM (inactive)	23.1 µM (inactive)	38.1 µM (inactive)	> 100 µM (inactive)	> 100 µM (inactive)
N=c1c2c(=S)n(-c3ccccc3)c(=S)n(-c3ccccc3)c2nc(SCCCN2CCCCC2)n1-c1ccccc1	1.93 µM (inactive)	2.09 µM (inactive)	1.64 µM (inactive)	2.79 µM (inactive)	0.329 µM (active)	2.91 µM (inactive)	0.439 µM (active)	1.85 µM (inactive)	1.48 µM (inactive)	1.75 µM (inactive)	1.86 µM (inactive)	1.73 µM (inactive)	1.94 µM (inactive)	1.71 µM (inactive)	1.81 µM (inactive)	0.91 µM (active)	0.558 µM (active)	1.64 µM (inactive)	1.78 µM (inactive)
CC(C)(C)c1ccc(OC(=O)Nc2ccc(O)c(C(=O)O)c2)cc1	> 100 µM (inactive)	> 100 µM (inactive)	> 100 µM (inactive)	> 100 µM (inactive)	> 100 µM (inactive)	> 100 µM (inactive)	> 100 µM (inactive)	> 100 µM (inactive)	> 100 µM (inactive)	> 100 µM (inactive)	> 100 µM (inactive)	> 100 µM (inactive)	> 100 µM (inactive)	> 100 µM (inactive)	> 100 µM (inactive)	> 100 µM (inactive)	> 100 µM (inactive)	> 100 µM (inactive)	> 100 µM (inactive)
ClCCCSSCCCCl	35.6 µM (inactive)	27.4 µM (inactive)	30.3 µM (inactive)	17.8 µM (inactive)	30.3 µM (inactive)	> 100 µM (inactive)	31 µM (inactive)	23.6 µM (inactive)	25.8 µM (inactive)	21.5 µM (inactive)	37.8 µM (inactive)	25.7 µM (inactive)	40.2 µM (inactive)	> 59.4 µM (inactive)	42.7 µM (inactive)	27.2 µM (inactive)	8.36 µM (inactive)	35.8 µM (inactive)	29.4 µM (inactive)
COC(=O)C1Cc2ccc3c(c2C1=O)CCCC3 (stereo not given)	> 100 µM (inactive)	> 100 µM (inactive)	81.1 µM (inactive)	> 100 µM (inactive)	73.6 µM (inactive)	> 100 µM (inactive)	24.7 µM (inactive)	92.3 µM (inactive)	22.2 µM (inactive)	> 100 µM (inactive)	68.2 µM (inactive)	39.7 µM (inactive)	> 100 µM (inactive)	> 100 µM (inactive)	> 100 µM (inactive)	38.1 µM (inactive)	26.7 µM (inactive)	83 µM (inactive)	> 100 µM (inactive)
O=c1c2nc3ccccc3c(=O)n2ncn1-c1ccccc1Cl	> 100 µM (inactive)	> 100 µM (inactive)	> 100 µM (inactive)	> 100 µM (inactive)	> 100 µM (inactive)	> 100 µM (inactive)	> 100 µM (inactive)	> 100 µM (inactive)	> 100 µM (inactive)	> 100 µM (inactive)	> 100 µM (inactive)	> 100 µM (inactive)	> 100 µM (inactive)	> 100 µM (inactive)	> 100 µM (inactive)	> 100 µM (inactive)	> 100 µM (inactive)	> 100 µM (inactive)	> 100 µM (inactive)
C=C(CCC(C(=O)O)C1CCC2(C)C3=C(CCC12C)C1(C)CCC(O)C(C)(C)C1CC3)C(C)C (stereo not given)	21.1 µM (inactive)	32.7 µM (inactive)	34.9 µM (inactive)	77.8 µM (inactive)	60.7 µM (inactive)	> 100 µM (inactive)	19.9 µM (inactive)	19.1 µM (inactive)	14.2 µM (inactive)	83.6 µM (inactive)	33.7 µM (inactive)	28.6 µM (inactive)	52 µM (inactive)	> 100 µM (inactive)	43.1 µM (inactive)	22 µM (inactive)	12.1 µM (inactive)	71 µM (inactive)	44.6 µM (inactive)
CCCCCCCN1C(=O)C(O)(c2ccc(C3(O)C(=O)N(CCCCCCC)c4ccccc43)s2)c2ccccc21 (stereo not given)	1.79 µM (inactive)	1.78 µM (inactive)	2.12 µM (inactive)	2.79 µM (inactive)	2.21 µM (inactive)	2.81 µM (inactive)	2.04 µM (inactive)	2.04 µM (inactive)	2.99 µM (inactive)	2.33 µM (inactive)	1.79 µM (inactive)	1.73 µM (inactive)	1.47 µM (inactive)	2.25 µM (inactive)	2.01 µM (inactive)	1.96 µM (inactive)	4.83 µM (inactive)	2.19 µM (inactive)	1.9 µM (inactive)
CCN(CC)c1ccc2cc(-c3nc4ccccc4n3C)c(=O)oc2c1	0.286 µM (active)	0.259 µM (active)	0.231 µM (active)	0.269 µM (active)	0.667 µM (active)	0.408 µM (active)	0.33 µM (active)	0.497 µM (active)	0.102 µM (active)	0.274 µM (active)	0.0948 µM (active)	0.204 µM (active)	0.255 µM (active)	> 100 µM (inactive)	> 100 µM (inactive)	0.495 µM (active)	0.0986 µM (active)	0.889 µM (active)	0.713 µM (active)
CN(C)CCCN1CCC2(CCC(C(C)(C)C)CC2)CC1	0.8 µM (active)	0.409 µM (active)	1.88 µM (inactive)	1.89 µM (inactive)	1.65 µM (inactive)	3.27 µM (inactive)	1.25 µM (inactive)	3.8 µM (inactive)	0.266 µM (active)	11.3 µM (inactive)	1.61 µM (inactive)	1.56 µM (inactive)	1.75 µM (inactive)	1.66 µM (inactive)	6.31 µM (inactive)	1.42 µM (inactive)	1.42 µM (inactive)	1.91 µM (inactive)	7.35 µM (inactive)
